Measurements: patent US8188077B2, “Apoptosis-inducing agents for the treatment of cancer and immune and autoimmune diseases” (Abbott Laboratories, priority 2010, dated 2012)

biological target: T1, Bcl-2 protein (Homo sapiens, UniProt P10415, DELINS35-91DVEENRTEAPEGTESE, form not given); assay: Bcl-2 fluorescence polarization assay (FPA) binding; conditions: 10 nM Bcl-2 protein, 1 nM fluorescein-labeled BAX peptide, room temperature, read-out: Bcl-2 FPA 11pt Ki
T1 construct: fused on or other part: Bcl-xL (Q07817) residues 29-44 stand in place of Bcl-2's own unstructured loop 35-91; The C-terminal membrane anchor (208-239) is absent
T1 sequence (P10415 with tags, fused parts or gaps with the stated changes): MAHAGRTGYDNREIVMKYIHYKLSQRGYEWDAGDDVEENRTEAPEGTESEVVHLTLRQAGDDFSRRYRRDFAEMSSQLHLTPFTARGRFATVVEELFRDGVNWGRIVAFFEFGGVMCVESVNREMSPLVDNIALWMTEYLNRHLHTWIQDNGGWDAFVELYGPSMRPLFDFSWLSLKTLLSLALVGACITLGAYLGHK
How it was run: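 Competitive fluorescence polarization with 10 nM Bcl-2 protein and 1 nM fluorescein-labeled BAX peptide in 20 mM phosphate pH 7.4, 1 mM EDTA, 0.05% PF-68. Compound dilutions in DMSO spanned […] to 10 pM; mix shaken 2 min, polarization read at room temperature (ex 485/em 530 nm); Ki values calculated.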

`O=C(NS(=O)(=O)c1ccc(NCC2CCOCC2)c([N+](=O)[O-])c1)c1ccc(N2CCN(Cc3ccccc3-c3ccc(-c4nc(-c5ccccc5)cs4)s3)CC2)cc1` [Example 62, N-({3-nitro-4-[(tetrahydro-2H-pyran-4-ylmethyl)amino]phenyl}sulfonyl)-4-(4-{2-[5-(4-phenyl-1,3-thiazol-2-yl)-2-thienyl]benzyl}piperazin-1-yl)benzamide] and `O=C(NS(=O)(=O)c1ccc(NCC2CCOCC2)c([N+](=O)[O-])c1)c1ccc(N2CCN(Cc3ccccc3-c3ccc(-c4nc(C56CC7CC(CC(C7)C5)C6)cs4)s3)CC2)cc1` [Example 63, 4-[4-(2-{5-[4-(adamantan-1-yl)-1,3-thiazol-2-yl]-2-thienyl}benzyl)piperazin-1-yl]-N-({3-nitro-4-[(tetrahydro-2H-pyran-4-ylmethyl)amino]phenyl}sulfonyl)benzamide] are within 1.5-fold of each other in Ki: 281 nM for the first, 278 nM for the second.

First: O=C(NS(=O)(=O)c1ccc(NCC2CCOCC2)c([N+](=O)[O-])c1)c1ccc(N2CCN(Cc3ccccc3-c3ccc(C(=O)Nc4ccc5oc(-c6ccccc6)nc5c4)o3)CC2)cc1 [Example 64, 5-{2-[(4-{4-[({3-nitro-4-[(tetrahydro-2H-pyran-4-ylmethyl)amino]phenyl}sulfonyl)carbamoyl]phenyl}piperazin-1-yl)methyl]phenyl}-N-(2-phenyl-1,3-benzoxazol-5-yl)-2-furamide]
Second: O=C(NS(=O)(=O)c1ccc(NCC2CCOCC2)c([N+](=O)[O-])c1)c1ccc(N2CCN(Cc3ccccc3C(=C(c3ccccc3)c3ccccc3)c3ccccc3)CC2)cc1 [Example 65, N-({3-nitro-4-[(tetrahydro-2H-pyran-4-ylmethyl)amino]phenyl}sulfonyl)-4-{4-[2-(triphenylvinyl)benzyl]piperazin-1-yl}benzamide]
The Ki of the first is 1.6-fold higher: 1470 nM for the first, 928 nM for the second.

Going from `CN1c2ccccc2-c2ccccc2C1c1ccccc1CN1CCN(c2ccc(C(=O)NS(=O)(=O)c3ccc(NCC4CCOCC4)c([N+](=O)[O-])c3)cc2)CC1` (stereo not shown) [Example 66, 4-{4-[2-(5-methyl-5,6-dihydrophenanthridin-6-yl)benzyl]piperazin-1-yl}-N-({3-nitro-4-[(tetrahydro-2H-pyran-4-ylmethyl)amino]phenyl}sulfonyl)benzamide] to `CC1(C)OB(c2ccccc2CN2CCN(c3ccc(C(=O)NS(=O)(=O)c4ccc(NCC5CCOCC5)c([N+](=O)[O-])c4)cc3)CC2)OC1(C)C` [Example 67, N-({3-nitro-4-[(tetrahydro-2H-pyran-4-ylmethyl)amino]phenyl}sulfonyl)-4-{4-[2-(4,4,5,5-tetramethyl-1,3,2-dioxaborolan-2-yl)benzyl]piperazin-1-yl}benzamide], the Ki rises from 7.87 nM to 4040 nM (510-fold).

First: COc1cccc(OC)c1C(=O)c1sccc1-c1ccccc1C=C1CCN(c2ccc(C(=O)NS(=O)(=O)c3ccc(NCC4CCOCC4)c([N+](=O)[O-])c3)cc2)CC1 [Example 68, 4-(4-{2-[2-(2,6-dimethoxybenzoyl)-3-thienyl]benzylidene}piperidin-1-yl)-N-({3-nitro-4-[(tetrahydro-2H-pyran-4-ylmethyl)amino]phenyl}sulfonyl)benzamide]
Second: O=C(NS(=O)(=O)c1ccc(NCC2CCOCC2)c([N+](=O)[O-])c1)c1ccc(N2CCC(=Cc3ccccc3-c3cn(C45CC6CC(CC(C6)C4)C5)nc3C(=O)N(c3ccccc3)c3ccccc3)CC2)cc1 [Example 69, 1-[adamantan-1-yl]-4-{2-[(1-{4-[({3-nitro-4-[(tetrahydro-2H-pyran-4-ylmethyl)amino]phenyl}sulfonyl)carbamoyl]phenyl}piperidin-4-ylidene)methyl]phenyl}-N,N-diphenyl-1H-pyrazole-3-carboxamide]
The Ki of the first is 8.5-fold lower: 92.6 nM for the first, 789 nM for the second.

Compared with `O=C(NS(=O)(=O)c1ccc(NCC2CCOCC2)c([N+](=O)[O-])c1)c1ccc(N2CCN(Cc3ccccc3N(C(=O)CCc3ccccc3)C3CC4CC3C3CCCC43)CC2)cc1` (stereo not shown) [Example 70, N-({3-nitro-4-[(tetrahydro-2H-pyran-4-ylmethyl)amino]phenyl}sulfonyl)-4-(4-{2-[octahydro-1H-4,7-methanoinden-5-yl(3-phenylpropanoyl)amino]benzyl}piperazin-1-yl)benzamide], `O=C(NS(=O)(=O)c1ccc(NCC2CCOCC2)c([N+](=O)[O-])c1)c1ccc(N2CCC(=Cc3ccccc3-c3ccc(CN4C5CCCC4CC5)s3)CC2)cc1` [Example 71, 4-[4-(2-{5-[8-azabicyclo[3.2.1]oct-8-ylmethyl]-2-thienyl}benzylidene)piperidin-1-yl]-N-({3-nitro-4-[(tetrahydro-2H-pyran-4-ylmethyl)amino]phenyl}sulfonyl)benzamide] is lower in Ki: 35.4 nM for the first, less than 20 nM for the second. The second binds more tightly here.

First: C[C@@H]1[C@@H](Nc2ccc(C=C3CCN(c4ccc(C(=O)NS(=O)(=O)c5ccc(NCC6CCOCC6)c([N+](=O)[O-])c5)cc4)CC3)cc2)C[C@H]2C[C@@H]1C2(C)C [Example 72, N-({3-nitro-4-[(tetrahydro-2H-pyran-4-ylmethyl)amino]phenyl}sulfonyl)-4-[4-(4-{[(1S,2S,3S,5R)-2,6,6-trimethylbicyclo[3.1.1]hept-3-yl]amino}benzylidene)piperidin-1-yl]benzamide]
Second: C[C@@H]1[C@@H](Nc2cccc(C=C3CCN(c4ccc(C(=O)NS(=O)(=O)c5ccc(NCC6CCOCC6)c([N+](=O)[O-])c5)cc4)CC3)c2)C[C@H]2C[C@@H]1C2(C)C [Example 73, N-({3-nitro-4-[(tetrahydro-2H-pyran-4-ylmethyl)amino]phenyl}sulfonyl)-4-[4-(3-{[(1S,2S,3S,5R)-2,6,6-trimethylbicyclo[3.1.1]hept-3-yl]amino}benzylidene)piperidin-1-yl]benzamide]
The Ki of the first is 3.1-fold higher: 287 nM for the first, 93.2 nM for the second.

Going from `O=C(NS(=O)(=O)c1ccc(NCC2CCOCC2)c([N+](=O)[O-])c1)c1ccc(N2CCC(=Cc3ccccc3-c3ccc(-c4nc(C56CC7CC(CC(C7)C5)C6)cs4)s3)CC2)cc1` [Example 74, 4-[4-(2-{5-[4-(adamantan-1-yl)-1,3-thiazol-2-yl]-2-thienyl}benzylidene)piperidin-1-yl]-N-({3-nitro-4-[(tetrahydro-2H-pyran-4-ylmethyl)amino]phenyl}sulfonyl)benzamide] to `O=C(NS(=O)(=O)c1ccc(NCC2CCOCC2)c([N+](=O)[O-])c1)c1ccc(N2CCC(=Cc3ccccc3-c3ccc(-c4nc(-c5ccccc5)cs4)s3)CC2)cc1` [Example 75, N-({3-nitro-4-[(tetrahydro-2H-pyran-4-ylmethyl)amino]phenyl}sulfonyl)-4-(4-{2-[5-(4-phenyl-1,3-thiazol-2-yl)-2-thienyl]benzylidene}piperidin-1-yl)benzamide], the Ki rises from 102 nM to 251 nM (2.5-fold).

`CC1(C)[C@@H]2CC[C@@]1(C)CN(c1ccc(C(=O)NS(=O)(=O)c3ccc(NC4CCOCC4)c([N+](=O)[O-])c3)cc1)C2` [Example 79, N-{[3-nitro-4-(tetrahydro-2H-pyran-4-ylamino)phenyl]sulfonyl}-4-[(1R,5S)-1,8,8-trimethyl-3-azabicyclo[3.2.1]oct-3-yl]benzamide] and `COc1ccc(-c2ccc3cc(C(=O)NS(=O)(=O)c4ccc(NCC5CCCCC5)c([N+](=O)[O-])c4)ccc3c2)cc1C12CC3CC(CC(C3)C1)C2` [Example 80, 6-{3-[adamantan-1-yl]-4-methoxyphenyl}-N-({4-[(cyclohexylmethyl)amino]-3-nitrophenyl}sulfonyl)-2-naphthamide] are within 1.5-fold of each other in Ki: 1420 nM for the first, 1300 nM for the second.

First: O=C(NS(=O)(=O)c1ccc(NC2CCOCC2)c([N+](=O)[O-])c1)c1ccc(N2CCN(C(=O)CC34CC5CC(CC(C5)C3)C4)CC2)cc1 [Example 81, 4-{4-[adamantan-1-ylacetyl]piperazin-1-yl}-N-{[3-nitro-4-(tetrahydro-2H-pyran-4-ylamino)phenyl]sulfonyl}benzamide]
Second: O=C(NS(=O)(=O)c1ccc(NC2CCOCC2)c([N+](=O)[O-])c1)c1ccc(NCC23CC4CC(CC(C4)C2)C3)cc1 [Example 82, 4-{[adamantan-1-ylmethyl]amino}-N-{[3-nitro-4-(tetrahydro-2H-pyran-4-ylamino)phenyl]sulfonyl}benzamide]
The Ki of the first is 2.2-fold higher: 4730 nM for the first, 2180 nM for the second. The second binds more tightly here.

First: O=C(NS(=O)(=O)c1ccc(NC2CCOCC2)c([N+](=O)[O-])c1)c1ccc(N2CCC(NC(=O)C34CC5CC(CC(C5)C3)C4)CC2)cc1 [Example 83, N-{1-[4-({[3-nitro-4-(tetrahydro-2H-pyran-4-ylamino)phenyl]sulfonyl}carbamoyl)phenyl]piperidin-4-yl}adamantane-1-carboxamide]
Second: O=C(NS(=O)(=O)c1ccc(NC2CCOCC2)c([N+](=O)[O-])c1)c1ccc(NC2C3CC4CC(C3)CC2C4)cc1 (stereo not shown) [Example 84, 4-[adamantan-2-ylamino]-N-{[3-nitro-4-(tetrahydro-2H-pyran-4-ylamino)phenyl]sulfonyl}benzamide]
The Ki of the first is higher: greater than 6250 nM for the first, 2380 nM for the second. The second binds more tightly here.

Compared with `C[C@@H]1[C@H]2C[C@@H](C[C@H]1Oc1ccc(C(=O)NS(=O)(=O)c3ccc(NC4CCOCC4)c([N+](=O)[O-])c3)cc1)C2(C)C` [Example 85, N-{[3-nitro-4-(tetrahydro-2H-pyran-4-ylamino)phenyl]sulfonyl}-4-{[(1R,2R,3R,5S)-2,6,6-trimethylbicyclo[3.1.1]hept-3-yl]oxy}benzamide], “N-(adamantan-2-yl)-6-methyl-8-{2-[(4-{4-[({3-nitro-4-[(tetrahydro-2H-pyran-4-ylmethyl)amino]phenyl}sulfonyl)carbamoyl]phenyl}piperazin-1-yl)methyl]phenyl}imidazo[1,2-a]pyridine-2-carboxamide [Example 26]” is 2.5-fold lower in Ki: 2880 nM for the first, 1170 nM for the second.
